“Also recorded” adds a separate entry of the source.
Columns and labels:
[1] = system: infections; experiment: Overall infection rate recorded by diary during the year following initiation of study drug; assay type: in vivo, human; details: elderly >=65 years
[2] = system: urinary tract infections; experiment: Urinary tract infections during one year after study drug administration; assay type: in vivo, human
[3] = system: tooth or gum infections; experiment: Tooth or gum infections during one year after study drug administration
Procedure: A total of 264 elderly volunteers ≥65 years of age, without unstable medical conditions, were enrolled in a randomized double blind placebo-controlled trial. […] Subjects were treated for 6 weeks with study drug and, after a 2 week drug-free interval, were given a 2014 seasonal influenza vaccine (Fluvax®, CSL Biotherapies). […] The subjects were then followed for another 9 months off study drug.
As an additional assessment of immune function, the overall infection rate in each treatment group was assessed by having subjects record any infections they experienced during the year following the initiation of study drug treatment in a diary that was reviewed by study investigators at each study visit.

[4] = system: respiratory tract infections; experiment: Respiratory tract infections during the 6 weeks of study drug treatment; assay type: in vivo, human; details: BEZ235 10 mg daily
Procedure: (Top) The percentage of subjects in each cohort who reported having one or more respiratory tract infections during the 6 weeks they were treated with study drug is shown. (Bottom) The percentage of subjects who experienced respiratory tract infections of moderate severity during the 6 weeks they were treated with study drug is shown. No subjects in the study experienced respiratory tract infections that were assessed as severe. The numbers on top of each bar indicate the percent change relative to placebo.
The rate of infections during the 6 weeks subjects were treated with study drug was also examined. The main infections that occurred during the 6 weeks of study drug treatment were respiratory tract infections.

[5] = system: immune system and interferon-induced gene expression in whole blood; experiment: RNAseq gene expression profiling and pathway enrichment analysis in whole blood, baseline vs after 6 weeks of treatment; assay type: in vivo, Homo sapiens; details: for Up-regulated genes: Tukey outlier of log 2(FC post- vs pre-treatment); for Mean FC Genes In Pathway: whole blood, post- vs pre-treatment (6 weeks)
Procedure: Peripheral venous blood samples were collected into PAXgene Blood RNA tubes. Total RNA was purified from PAXgene collected blood and the quality and yield of the isolated RNA assessed using an Agilent 2100 Bioanalyzer (Agilent Technologies, Santa Clara, Calif., USA). RNA-Seq libraries were prepared from the RNA using the Illumina TruSeq Stranded Total RNA with the Ribo-Zero Globin Kit. This kit performed the removal of ribosomal RNA and globin mRNA in a single step. The obtained libraries were sequenced using the Illumina HiSeq2500 platform in paired-end mode to a read length of 2×76 base-pairs (bp). Images from the instrument were processed using the manufacturer's software to generate FASTQ sequence files. Read quality was assessed by running FastQC (version 0.10) on the FASTQ files. […] An average of 100 million 76 bp paired-end reads per sample were mapped to the Homo sapiens genome (version GRCh38) and RefSeq UCSC was used for human gene and transcript annotation. An in-house gene quantification pipeline was used to determine the number of counts mapping to each gene (Schuierer, S. & Roma, G. The exon quantification pipeline (EQP): a comprehensive approach to the quantification of gene, exon and junction expression from RNA-seq data. Nucleic acids research (2016)). On average, 88% of the total reads were mapped to the genome or the transcripts, and 30% of the aligned reads mapped to expressed sequences. […] Any gene with an average expression of less than one count per million in any treatment/time condition was considered undetectable and removed from further analysis. Count data for remaining genes was then normalized in R Statistical Computing Software (v3.1.3) using the voom normalization procedure located in the limma package (Law, C W, Chen, Y, Shi, W, and Smyth, G K (2014). Voom: precision weights unlock linear model analysis tools for RNA-seq read counts. Genome Biology 15, […]). […] Thus, we included the value of this principle component as an adjustment for technical variation in subsequent analysis. For each gene, the following linear mixed model was fit to the voom-normalized expression data, adjusting for relevant covariates (age, gender, and BMI) as well as PC1 using SAS v9.3 software. • proc mixed […]; • class SubjID Day Trt Gender; • model log 2[…] Age Gender Bmi/solution DDFM=KenwardRoger; • repeated Day/type=un subject=SubjID; • by gene; where log 2exprs refers to the voom-normalized expression measurement; Day refers to the timepoint the sample was taken (pre- or post-dose); Trt refers to the treatment group of the subject; PC1 refers to the value of PC1 for that sample; Age refers to the age of the subject; Gender refers to the sex of the subject; Bmi refers to the body mass index of the subject; and SubjID refers to the ID of the subject. Differential expression fold changes and p-values were obtained using the SAS estimate statement. […] These gene expression signatures consisted of the post-vs pre-treatment fold change and p-values for each treatment. […] Canonical pathways (c2.cp.v5.0.entrez.gmt) were downloaded from the canonical signatures database (http://software.broadinstitute.org/gsea/msigdb/). Signatures were defined as described in the “RNASeq Differential Expression Analysis” section. For each pathway and treatment response signature, a weighted KS test was performed as previously described (Subramanian et al. Gene set enrichment analysis: A knowledge-based approach for interpreting genome-wide expression profiles. Proc. Nat. Acad.

[6] = human, in vivo, 10 mg
[7] = pH 3
[8] = human, in vivo
Procedure: In some embodiments, dosing regimens contemplated herein comprise administering daily an amount of RAD001 ranging from about 0.015 mg to about 0.1 mg.

[9] = molecular target: mTORC1 (Homo sapiens, UniProt P42345); details: very low concentration; cited from earlier work
[10] = molecular target: mTORC1 and mTORC2 (Homo sapiens, UniProt P42345); details: low concentration; cited from earlier work
[11] = system: PI3K/mTOR; details: relatively higher concentrations; cited from earlier work
[12] = oncology indications; cited from earlier work
[13] = REACTOME_INTERFERON_ALPHA_BETA_SIGNALING
[14] = REACTOME_INTERFERON_GAMMA_SIGNALING

CO[C@H]1C[C@@H]2CC[C@@H](C)[C@@](O)(O2)C(=O)C(=O)N2CCCC[C@H]2C(=O)O[C@H]([C@H](C)C[C@@H]2CC[C@@H](OCCO)[C@H](OC)C2)CC(=O)[C@H](C)/C=C(\C)[C@@H](O)[C@@H](OC)C(=O)[C@H](C)C[C@H](C)/C=C/C=C/C=C/1C [RAD001, (1R,9S,12S,15R,16E,18R,19R,21R,23 S,24E,26E,28E,30S,32S,35R)-1,18-dihydroxy-12-{(1R)-2-[(1 S,3R,4R)-4-(2-hydroxyethoxy)-3-methoxycyclohexyl]-1-methylethyl}-19,30-dimethoxy-15,17,21,23,29,35-hexamethyl-11,36-dioxa-4-aza-tricyclo[30.3.1.04,9]hexatriaconta-16,24,26,28-tetraene-2,3,10,14,20-pentaone]
Infection rate/person for one year after study drug administration ([1]; RAD001 0.1 mg daily for 6 weeks): 2.0
Infection rate/person for one year after study drug administration ([1]; RAD001 0.5 mg daily for 6 weeks): 2.1
Percent of subjects with urinary tract infections during one year after study drug administration ([2]; RAD001 0.1 mg daily, N = 51): 10%
Percent of subjects with urinary tract infections during one year after study drug administration ([2]; RAD001 0.5 mg daily, N = 46): 11%
Number of tooth or gum infections per person for one year after study drug administration ([3]; RAD001 0.1 mg daily): .02
Number of tooth or gum infections per person for one year after study drug administration ([3]; RAD001 0.5 mg daily): .02

Cn1c(=O)n(-c2ccc(C(C)(C)C#N)cc2)c2c3cc(-c4cnc5ccccc5c4)ccc3ncc21 [BEZ235, 2-methyl-2-[4-(3-methyl-2-oxo-8-quinolin-3-yl-2,3-dihydro-imidazo[4,5-c]quinolin-1-yl)-phenyl]-propionitrile]
incidence and severity of respiratory tract infections during the 6 weeks subjects were treated with study drug [4]: reduction
Up-regulated genes ([5]; REACTOME_CYTOKINE_SIGNALING_IN_IMMUNE_SYSTEM, listed as Bez): IFITM3; FCGR1A; FCGR1B; HLA-DQA2; and CDK1
Mean FC Genes In Pathway ([5]; REACTOME_CYTOKINE_SIGNALING_IN_IMMUNE_SYSTEM): 0.02
Up-regulated genes ([5]; REACTOME_IMMUNE_SYSTEM, listed as Bez): IFITM3; LILRB4; TRIM9; FCGR1A;; also recorded: FCGR1B; CD274; HLA-DQA2; RAP1GAP;; also recorded: TLR5; C1QA; C1QB; C3; C4BPA;; also recorded: PDCD1LG2; KLHL13; CD80; CDK1
Mean FC Genes In Pathway ([5]; REACTOME_IMMUNE_SYSTEM): 0.01
Up-regulated genes [5, 13]: IFITM3
Mean FC Genes In Pathway [5, 13]: 0.03
Up-regulated genes [5, 14]: FCGR1A; FCGR1B; HLA-DQA2
Mean FC Genes In Pathway [5, 14]: 0.04
Up-regulated genes ([5]; REACTOME_INTERFERON_SIGNALING): IFITM3; FCGR1A; FCGR1B, HLA-DQA2
Mean FC Genes In Pathway ([5]; REACTOME_INTERFERON_SIGNALING): 0.03
inter-patient variability, AUClast,ss % CV [6]: 39%
solubility [7]: low
tolerability [8]: well tolerated
concentration at which mTORC1 inhibition predominates [9]: less than or equal to 10 nmol/L
concentration at which mTORC1 and mTORC2 inhibition predominates [10]: less than 200 nmol/L
concentration of dual PI3K/mTOR inhibition [11]: approximately 500 nmol/L
maximum tolerated dose [12]: 1200 mg daily

Reference: patent US10993940B2, “Methods of enhancing immune response” (NOVARTIS AG, priority 2016, dated 2021)
